Measured values from the supplement of paper PMC10307832.

Columns and labels:
Test in all cases: relative viability (nuclei count vs DMSO), 5 days (fraction); higher = more cells survive
QS11 + Trametinib = compound: C1CC2=C(C1)C=C(C=C2)OC3=NC(=C4C(=N3)N(C=N4)CC5=CC=C(C=C5)C6=CC=CC=C6)N[C@@H](CC7=CC=CC=C7)CO [QS11] + CC(=O)Nc1cccc(-n2c(=O)n(C3CC3)c(=O)c3c(Nc4ccc(I)cc4F)n(C)c(=O)c(C)c32)c1 [Trametinib] (partner 0.02 µM)
Summary of the method: (§1)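 After 5 days of treatment, lung cancer cells in 1536-well plates were fixed and stained in a single step (final 0.05% Triton X-100, 1% formaldehyde, 1 ug/ml Hoechst) and their nuclei counted on 4× images. Treatment had been applied by pin tool the day after seeding as one drug alone or as a fixed anchor-drug dose with five library-drug doses (not always all listed) in √10 steps. Relative viability is the nuclei count of treated wells divided by that of vehicle wells, and values are medians of duplicate plates.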

QS11 + Alpelisib = compound: C1CC2=C(C1)C=C(C=C2)OC3=NC(=C4C(=N3)N(C=N4)CC5=CC=C(C=C5)C6=CC=CC=C6)N[C@@H](CC7=CC=CC=C7)CO [QS11] + Cc1nc(NC(=O)N2CCC[C@H]2C(N)=O)sc1-c1ccnc(C(C)(C)C(F)(F)F)c1 [Alpelisib] (partner 2 µM)
Summary of the method: as §1

QS11 + AZD7762 = compound: C1CC2=C(C1)C=C(C=C2)OC3=NC(=C4C(=N3)N(C=N4)CC5=CC=C(C=C5)C6=CC=CC=C6)N[C@@H](CC7=CC=CC=C7)CO [QS11] + NC(=O)Nc1cc(-c2cccc(F)c2)sc1C(=O)N[C@H]1CCCNC1 [AZD7762] (partner 0.2 µM)
Summary of the method: as §1

AZ628 + Lapatinib = compound: CC1=C(C=C(C=C1)NC(=O)C2=CC(=CC=C2)C(C)(C)C#N)NC3=CC4=C(C=C3)N=CN(C4=O)C [AZ628] + CS(=O)(=O)CCNCc1ccc(-c2ccc3ncnc(Nc4ccc(OCc5cccc(F)c5)c(Cl)c4)c3c2)o1 [Lapatinib] (partner 2 µM)
Summary of the method: as §1

[1] = compound: C[As](C)SC[C@H](NC(=O)CC[C@H](N)C(=O)O)C(=O)NCC(=O)O [Darinaparsin] + N=C(N)NC(=N)NCCc1ccccc1 [Phenformin] (partner 250 µM)
Summary of the method: as §1

LCLC-97TM1
relative viability (QS11 + Trametinib; first compound 0.253 µM): 0.213
relative viability (QS11 + Trametinib; first compound 2.53 µM): 0.223
relative viability (QS11 + Trametinib; first compound 8 µM): 0.277
relative viability (QS11 + Alpelisib; first compound 0.08 µM): 0.225
relative viability (QS11 + Alpelisib; first compound 0.253 µM): 0.233
relative viability (QS11 + Alpelisib; first compound 0.8 µM): 0.201
relative viability (QS11 + Alpelisib; first compound 2.53 µM): 0.323
relative viability (QS11 + Alpelisib; first compound 8 µM): 0.299
relative viability (QS11 + AZD7762; first compound 0.253 µM): 0.192
relative viability (QS11 + AZD7762; first compound 2.53 µM): 0.27
relative viability (QS11 + AZD7762; first compound 8 µM): 0.418
relative viability (AZ628 + Lapatinib; first compound 0.08 µM): 1.01
relative viability (AZ628 + Lapatinib; first compound 0.253 µM): 1.01
relative viability (AZ628 + Lapatinib; first compound 0.8 µM): 1.37
relative viability (AZ628 + Lapatinib; first compound 2.53 µM): 1.2
relative viability (AZ628 + Lapatinib; first compound 8 µM): 0.152
relative viability ([1]; first compound 0.08 µM): 0.417
relative viability ([1]; first compound 0.8 µM): 0.412
relative viability ([1]; first compound 2.53 µM): 0.444
relative viability ([1]; first compound 8 µM): 0.302
